Measurements: patent publication US20230323293A1, “EXPANSION CULTURE MEDIUM AND CULTURE METHOD FOR NEURAL CELLS” (INSTITUTE OF ZOOLOGY, CHINESE ACADEMY OF SCIENCES, priority 2020, published 2023)

Experiments:
[1] = test system: astrocytes; test: Expansion experiment of astrocytes; type: cell-based, human; settings: 10 μM, P2 to P6, versus control group
Description: (1) hESCs were cultured and differentiation was conducted until about 80% confluence. On the 0th day, the cells were dissociated with Dispase (1 U/mL), and the bottom cell mass was harvested and plated in an ultra-low adsorption 10 cm culture dish. • (2) From the 1st day, the neural induction was started by replacing with NIM medium supplemented with neural induction molecules 100 nM LDN193189 and 10 μM SB431542. […]

[2] = test system: NSCs; test: Proliferation of neural stem cells; type: cell-based, human; settings: 10 μM, P4 to P6
Description: The differentiation method was referred to Tchieu et al., A Modular Platform for Differentiation of Human PSCs into All Major Ectodermal Lineages. 2017, Cell Stem Cell 21, 399-410.
NSCs were cultured with expansion medium after adherence, DMEM/F12 (1×, Gibco) supplemented with […] human (EGF) (R&D), […] (bFGF) (R&D), 5 μg/ml Heparin (Sigma), 2% B27 (Gibco), 1× GlutaMAX, and 10 μM Blebbistatin was added to the experimental group. Half of the culture medium was changed every day.

[3] = test system: microglial progenitors; test: Proliferation of microglial progenitors; type: cell-based; settings: 10 μM
Description: • (1) On the 0th day, ESCs were digested with Accutase into single cells, counted and inoculated into a V-bottom 96-well plate at a concentration of 10,000/well, and cultured statically. • (2) From the 0th to 4th day, the medium was microglial induction medium: DMEM/F12, 20% KOSR, 1× Glutamax, 1×NEAA, 50 ng/ml BMP4, 50 ng/ml VEGF, 20 ng/ml SCF, 10 μM Y-27632. • (3) On the 4th day, the suspended EBs were subjected to adherent culture in a 6-well plate, the culture medium was changed on the 4th day and then the static culture was carried out until the 11th day. From the 4th to 11th day, the culture medium was microglial differentiation medium: X-VIVO15, 1× Glutamax, 25 ng/ml IL-34, 50 ng/ml M-CSF. At this stage, Blebbistatin was added at a concentration of 10 μM. • (4) On the 11th day, the single cells suspended in the medium were collected and counted, and the EBs were continued to be cultured with the microglial differentiation medium, and the suspended cells in the supernatant were collected every 7 days for a total of 3 collections. • (5) Maturation of microglial cells: The supernatant was discarded after centrifugation, the cells were resuspended in a microglial maturation medium and inoculated on Matrigel pre-coated culture plates. The microglial cells matured after being continuously cultured for 14 days. […]

[4] = test system: GABA progenitor cells; test: Proliferation of GABA progenitor cells; type: cell-based, human; settings: 10 μM, P4 to P5, versus control group
Description: (1) hESCs were cultured and differentiation was conducted until about 80% confluence. On the 0th day, the cells were dissociated with Dispase (1 U/mL), and the bottom cell mass was harvested and spread on an ultra-low adsorption 10 cm culture dish.
(2) From the 1st day, the neural induction was started by using NIM medium supplemented with 100 nM LDN193189, 10 μM SB431542, and 2 μM XAV939. […]

SMILES: Cc1ccc2c(c1)C(=O)[C@]1(O)CCN(c3ccccc3)C1=N2 [Blebbistatin, (S)-(−)-Blebbistatin]
- expansion ability of astrocytes [1]: significantly improved
- expansion of NSCs [2]: significantly promoted the expansion of NSCs
- proliferation of microglial progenitors and differentiation efficiency [3]: could promote the proliferation of microglial progenitors and improve the differentiation efficiency
- number of suspension cells collected ([3]; first two collections, versus control group): increased significantly
- expansion ability of GABA progenitor cells [4]: significantly improved
